Test system: Pseudomonas aeruginosa
Test: In vivo protection of cyclophosphamide-immunocompromised mice against Pseudomonas aeruginosa (LD50, protective index)
Set-up: species or system Pseudomonas aeruginosa (Immunotype 1); CFl female mice
Details: Table 3; cyclophosphamide-treated mice; dose not stated in table (initial test dose 40 mg per kg)
Experimental: Groups of 15-20 CFl femal mice (Charles River Breeding, Cambridge, MA) weighing 22-28 gm were injected intraperitoneally (i.p.) with cyclophosphamide (Cytoxan; CY) at 250 mg per kg body weight. One to two hours later they were typically injected again with the test material by the route specified. Four days later, the mice were divided into groups of five, each of which were injected i.p. with a different dilution of a suspension of Pseudomonas aeruginosa (Immunotype 1). The number of survivors was determined periodically and an estimate was made of the number of CFU of Pseudomonas organisms necessary to cause 50% lethality by the cumulative method of L. J. Reed and H. Muench (Am. J. Hygiene 27 (1938) 493-497). A protective index (P.I.) was defined as the LD50 for the mice receiving cyclophosphamide and the test compound divided by the LD50 for the mice recieving cyclophosphamide alone. All control mice were injected with aqueous vehicle in the same route and schedule as the test animals.
All compounds for dosing were suspended in a sterile medium referred to as "aqueous vehicle" which contains 0.9% sodium chloride, 0.5% carboxymethyl cellulose, 0.4% Tween 80, and 0.9% benzyl alcohol unless otherwise stated. Test materials were evaluated via subcutaneous (s.c.), i.p., intramuscular (i.m.), orally (p.o.). and intravenous (i.v.) routes of administration. […]

SMILES: C[C@H](N)[C@H]1CC[C@H]2[C@@H]3CC=C4C[C@@H](OCCCCCCS[C@@H]5O[C@H](CO)[C@@H](O)[C@H](O)[C@@H]5O)CC[C@]4(C)[C@H]3CC[C@]12C [Example 14, 6-(20S-Amino-pregn-5-en-3β-yloxy)hexyl 1-thio-β-D-mannopyranoside]
- Protective Index (log): 4.37 log

— US4652553A, “Steroidal glycolipids as host resistance stimulators” (priority 1985, dated 1987)
